System: 556581-035-R-J1-PDC complex spheroid growth
Assay: Anticancer human tumor 556581-035-R-J1-PDC patient-derived ovarian carcinoma cell line growth inhibition [Asc]
Conditions: for IC50: curve of first compound; for viability, T/C: stronger effect = lower value
How it was run: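 Concentration series start at each agent's clinical Cmax, or at 10 microM when none is established, and drop in half-log steps; agents are applied alone or together to complex spheroids built with HUVEC and hMSC.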

[1] = second compound 0.1 µM, first compound 0.00316 µM
[2] = second compound 0.1 µM, first compound 0.01 µM
[3] = second compound 0.1 µM, first compound 0.0316 µM
[4] = second compound 0.1 µM, first compound 0.1 µM
[5] = second compound 0.1 µM, first compound 0.316 µM
[6] = second compound 0.1 µM, first compound 1 µM
[7] = second compound 0.316 µM, first compound 0.00316 µM
[8] = second compound 0.316 µM, first compound 0.01 µM
[9] = second compound 0.316 µM, first compound 0.0316 µM
[10] = second compound 0.316 µM, first compound 0.1 µM
[11] = second compound 0.316 µM, first compound 0.316 µM
[12] = second compound 0.316 µM, first compound 1 µM
[13] = second compound 1 µM, first compound 0.00316 µM
[14] = second compound 1 µM, first compound 0.01 µM
[15] = second compound 1 µM, first compound 0.0316 µM
[16] = second compound 1 µM, first compound 0.1 µM
[17] = second compound 1 µM, first compound 0.316 µM
[18] = second compound 1 µM, first compound 1 µM
[19] = second compound 3.16 µM, first compound 0.00316 µM
[20] = second compound 3.16 µM, first compound 0.01 µM
[21] = second compound 3.16 µM, first compound 0.0316 µM
[22] = second compound 3.16 µM, first compound 0.1 µM
[23] = second compound 3.16 µM, first compound 0.316 µM
[24] = second compound 3.16 µM, first compound 1 µM
[25] = second compound 10 µM, first compound 0.00316 µM
[26] = second compound 10 µM, first compound 0.01 µM
[27] = second compound 10 µM, first compound 0.0316 µM
[28] = second compound 10 µM, first compound 0.1 µM
[29] = second compound 10 µM, first compound 0.316 µM
[30] = second compound 10 µM, first compound 1 µM
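Further: spheroids exposed to agents for 7 days before viability read.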

SMILES | IC50 (second compound 0.1 µM) [nM] | IC50 (second compound 0.316 µM) [nM] | IC50 (second compound 1 µM) [nM] | IC50 (second compound 3.16 µM) [nM] | IC50 (second compound 10 µM) [nM] | viability, T/C [1] [%] | viability, T/C [2] [%] | viability, T/C [3] [%] | viability, T/C [4] [%] | viability, T/C [5] [%] | viability, T/C [6] [%] | viability, T/C [7] [%] | viability, T/C [8] [%] | viability, T/C [9] [%] | viability, T/C [10] [%] | viability, T/C [11] [%] | viability, T/C [12] [%] | viability, T/C [13] [%] | viability, T/C [14] [%] | viability, T/C [15] [%] | also measured
CCN1CCN(Cc2ccc(Nc3ncc(F)c(-c4cc(F)c5nc(C)n(C(C)C)c5c4)n3)nc2)CC1 + Cc1c(S(C)(=O)=O)c(-c2cc(F)cc(N3CCN(c4ccc(NS(=O)(=O)c5ccc(NC(CCN6CCC(C(=O)OCCCP(=O)(O)O)CC6)CSc6ccccc6)c(S(=O)(=O)C(F)(F)F)c5)cc4)CC3)c2)c(-c2ccc(Cl)cc2)n1C(C)C | > 1000 | > 1000 | 556 | 782 | 490 | 99.3 | 75.3 | 88.9 | 78.1 | 87.8 | 61 | 83.7 | 77.5 | 86.5 | 83.5 | 74.7 | 57.5 | 78.2 | 89.6 | 86.6 | viability, T/C [16]: 77.3%; viability, T/C [17]: 62%; viability, T/C [18]: 37.9%; viability, T/C [19]: 69.6%; viability, T/C [20]: 86.1%; viability, T/C [21]: 90.1%; viability, T/C [22]: 66.5%; viability, T/C [23]: 67.6%; viability, T/C [24]: 45.5%; viability, T/C [25]: 68.9%; viability, T/C [26]: 69.7%; viability, T/C [27]: 79.9%; viability, T/C [28]: 64%; viability, T/C [29]: 70.6%; viability, T/C [30]: 16.7%
COc1c(OCCCN2CCOCC2)ccc2c3n(c(=NC(=O)c4cnc(N)nc4)nc12)CCN3 + Cc1c(S(C)(=O)=O)c(-c2cc(F)cc(N3CCN(c4ccc(NS(=O)(=O)c5ccc(NC(CCN6CCC(C(=O)OCCCP(=O)(O)O)CC6)CSc6ccccc6)c(S(=O)(=O)C(F)(F)F)c5)cc4)CC3)c2)c(-c2ccc(Cl)cc2)n1C(C)C | 46.9 | 28.4 | 18.9 | 10.5 | 3.16 | 71 | 67.5 | 42.1 | 51.2 | 29.9 | 10.1 | 75.6 | 56.6 | 44.4 | 47.9 | 16.4 | 10.5 | 57.9 | 61.3 | 41.5 | viability, T/C [16]: 27.7%; viability, T/C [17]: 14.2%; viability, T/C [18]: 9.33%; viability, T/C [19]: 59%; viability, T/C [20]: 50.5%; viability, T/C [21]: 41.7%; viability, T/C [22]: 29%; viability, T/C [23]: 23.9%; viability, T/C [24]: 9.13%; viability, T/C [25]: 48.7%; viability, T/C [26]: 57.3%; viability, T/C [27]: 34%; viability, T/C [28]: 53.7%; viability, T/C [29]: 11.1%; viability, T/C [30]: 19.6%

From PubChem BioAssay AID1963450 (Molecular Pharmacology Branch, DTP, NCI, 2024)
